# Reference: patent US20150004137A1, “NOVEL FORMS OF PLANT DEFENSINS” (Balmoral Australia Pty Ltd, priority 2011, published 2015)
# “Also recorded” adds a separate entry of the source. Where no end group is shown, it is not given here.
# Legend:
# [1] = tested on: U937 cells; experiment: PI uptake membrane permeabilisation assay (flow cytometry); type: cell-based, human; conditions: 30 minutes at 37° C.
# Protocol: FIG. 5B is a graphical representation showing the effect of rNaD1, rNaD1(D2L4A), or rNaD1(D2L5) on the permeabilisation of U937 cells. Cells were incubated with 10 μM of each defensin for 30 minutes at 37° C. upon which 1 μg/ml PI propidium iodide (PI) was added. The number of cells that stained positively for PI was determined by flow cytometry.
# Cells were incubated with 10 μM of each defensin for 30 minutes at 37° C. upon which 1 μg/ml PI propidium iodide (PI) was added. The number of cells that stained positively for PI was determined by flow cytometry.
# Cells were incubated with 5 μM of each defensin for 30 minutes at 37° C. upon which […] PI propidium iodide (PI) was added. The number of cells that stained positively for PI was determined by flow cytometry.
# Unless otherwise stated, cells are re-suspended at a cell concentration of 4×10^5 cells/mL in complete culture RPMI-1640 medium supplemented with 10% FBS, 100 μ/mL penicillin and 100 μg/mL streptomycin, and are added to either a V-bottom 96-well plate or microfuge tubes. Cells are kept at 37° C., unless otherwise stated, during protein addition (5 μL) at various concentrations or the set concentration of 10 μM. Typically, cells are mixed with the heterogeneous defensin of interest and are incubated at 37° C. for 30 min. In certain experiments, cells are also incubated at either 4° C. or 37° C. for 2-60 min prior to flow cytometry analysis. Cells are added to an equal volume of complete culture medium containing 2 μg/mL propidium iodide (PI, Annexin V-FITC Apoptosis Detection Kit, Invitrogen) and are analysed immediately by flow cytometry using a FACSCanto cell sorter (Becton Dickson, Fanklin Lakes, N.J.) and Cell Quest Pro Software (Becton Dickson). Typically, 5000-10000 events per sample are collected and the resultant data is analysed using FlowJo software (Tree Star, Ashland, Oreg.). Cells are gated appropriately based on forward scatter (FSC) and side scatter (SSC), with the viable cells is determined by their ability to exclude PI. […]
# [2] = Lipid binding assay on Echelon membrane lipid strips; conditions: anti-NaD1 antibody detection, densitometry
# Excerpt: FIG. 5C is an immunoblot depicting the lipid binding profile of rNaD1, rNaD1(D2L4A), or rNaD1(D2L5). Echelon™ membrane lipid strips were probed with the defensins and binding detected with a rabbit anti-NaD1 antibody followed by a horseradish peroxidase (HRP) conjugated donkey anti-rabbit IgG antibody.
# Data is the mean of three replicate experiments±SEM.
# Echelon™ membrane lipid strips were probed with the defensins and binding was detected with a rabbit anti-NaD1 antibody followed by a horseradish peroxidase (HRP) conjugated donkey anti-rabbit IgG antibody.
# Membrane Lipid Strips™, PIP Strips™ and Sphingo Strips™ (Echelon Biosciences, Salt Lake City, Utah) were incubated with PBS/3% BSA for 1-2 h at RT to block non-specific binding. […] Membrane-bound protein was detected by probing the membrane strips with a rabbit anti-NaD1 polyclonal antibody (diluted 1:2000 with PBS/1% BSA) for 1 h at 4° C., followed by a HRP-conjugated donkey anti-rabbit IgG antibody (diluted 1:2000 with PBS/1% BSA) for 1 h at 4° C. After each antibody incubation, the membrane strips were washed extensively for 60 min at RT with PBS/0.1% Tween-20. Chemiluminescence was detected using the enhanced chemiluminescence (ECL) western blotting reagent (GE Healthcare BioSciences, NSW Australia) and exposed to Hyperfilm (GE Healthcare BioSciences, NSW, Australia) and developed using an Xomat (All-Pro-Imaging). […]
# [3] = Cross-linking (BS3) study of lipid-mediated oligomerisation with PIP2; conditions: 0.5 mM PIP2, 30 min room temperature, SDS-PAGE, immunoblot
# Protocol: (§1) Molecular weight markers are indicated.
# (§2) Protein samples at 1 mg ml^−1 (2.5 μl) were incubated with 0.5 mM PIP2 or PA (2.5 μl) at room temperature for 30 min. […] Samples were reduced and denatured, and subjected to SDS-PAGE.
# [4] = Cross-linking (BS3) study of lipid-mediated oligomerisation with PA; conditions: 0.5 mM PA, 30 min room temperature, SDS-PAGE, immunoblot
# Protocol: as §1, §2
# [5] = as described in PCT/AU2011/000760 and U.S. Ser. No. 13/166,960; cited from earlier work
# [6] = tested on: tumour cells; conditions: as disclosed in PCT/AU2011/000760 and U.S. Ser. No. 13/166,960; cited from earlier work
# [7] = tested on: U937 cells; experiment: BODIPY-NaD1 binding to viable and permeabilised U937 cells (flow cytometry, 7AAD); type: cell-based, human; conditions: 10 μM, 37° C., 30 min
# Excerpt: The percentage of cells in each population (boxed) is indicated.
# [8] = tested on: U937 and PC3 cells; experiment: Subcellular localisation of BODIPY-NaD1 by CLSM; type: cell-based, human; conditions: PI present, 12 minutes
# Protocol: FIG. 2B is a series of micrographs examining the subcellular localisation of BODIPY-NaD1 in U937 and PC3 cells. U937 cells immobilised onto 10% poly-L-lysine coverslips or PC3 cells cultured as adherent monolayers on coverslips, were treated with […] BODIPY-NaD1 in the presence of 1 μg/ml PI for 12 minutes and cells imaged by CLSM. Scale bars represent 10 μm.
# Live imaging was performed on a Zeiss LSM-510 confocal microscope using a 40× oil immersion objective in a 37° C./5% CO2 atmosphere. Adherent cells were cultured on coverslips prior to imaging while non-adherent cells were immobilized onto 10% poly-L-lysine-coated coverslips. All cell types were prepared for imaging in RPMI medium containing 0.1% BSA and […] PI. […] In certain experiments, cells were either, stained with PKH67 (Sigma-Aldrich) or transfected with plasmid construct for free GFP or GFP-PH(PLCδ) using Lipofectamine™ 2000 Reagent (Invitrogen) as per manufacturer's instructions prior to imaging. Transmission electron microscopy (TEM) imaging was performed according to a previously described procedure (Adda et al. 2009).
# [9] = target: the molecule itself; experiment: BS3 cross-linking in solution, SDS-PAGE and immunoblot; NaD2 was also efficiently multimerised by PA and not by PIP2
# Protocol: FIG. 4B is an immunoblot depicting the lipid-mediated oligomerisation of the class II defensins NaD1 and TPP3, and the class I defensin NaD2. Each of the defensins at 250 ng/ml were incubated with 0.5 mM PIP2 or PA at room temperature for 30 minutes and samples then treated with the cross-linker bis[sulfosuccinimidyl] suberate (BS³) at 12.5 mM for a further 30 minutes, Samples were reduced and denatured, separated by SDS-PAGE, and examined by immunoblotting with an anti-NaD1 (NaD1 and TPP3) or anti-NaD2 (NaD2) antibody. Molecular weight markers are indicated.
molecule,measurement,setting,value
"R40E: NaD1 mutant, loop 5 residue R40 replaced with glutamic acid (RECKTESNTFPGICITKPPCRKACISEKFTDGHCSKILRECLCTKPC; UniProt Q8GTM0 26-72, looked up, variant R40E)",permeabilisation of U937 cells (cells stained positively for PI),[1]; 5 μM of each defensin,greatly reduced ability to permeabilise U937 cells
"rNaD1: NaD1 purified from P. pastoris (recombinant NaD1) (RECKTESNTFPGICITKPPCRKACISEKFTDGHCSKILRRCLCTKPC; recombinant, Pichia pastoris; UniProt Q8GTM0 26-72, looked up)",permeabilisation of U937 cells (cells stained positively for PI),[1]; 10 μM of each defensin,permeabilised U937 cells
same,lipid binding profile (lipid bound most strongly / preferred),[2],bound most strongly to PIP2
RTCESQSHRFKGPCARDSNCATVCLTEGFSGGDCRGFRRRCFCTRPC (listed as Nicotiana alata) [NaD2],multimerisation (oligomer formation) mediated by PIP2,[3],not PIP2
same,multimerisation (oligomer formation) mediated by PA,[4],forms oligomers with PA; also recorded: efficiently multimerised by PA
same,lipid binding preference / ligand,[5],preferentially binds PA over PIP2; also recorded: does not bind PIP2
same,tumour cell killing,[6],does not kill tumour cells
"K36E: NaD1 mutant, loop 5 residue K36 replaced with glutamic acid (RECKTESNTFPGICITKPPCRKACISEKFTDGHCSEILRRCLCTKPC; UniProt Q8GTM0 26-72, looked up, variant K36E)",permeabilisation of U937 cells (cells stained positively for PI),[1]; 5 μM of each defensin,greatly reduced ability to permeabilise U937 cells
"BODIPY-NaD1: BODIPY-labelled NaD1 (RECKTESNTFPGICITKPPCRKACISEKFTDGHCSKILRRCLCTKPC; cysteine pairing not given here; also: BODIPY label (position not given here); UniProt Q8GTM0 26-72, looked up)",binding to U937 cells,"[7]; 7AAD, flow cytometry",bound to both viable (7AAD negative) and permeabilised (7AAD positive) U937 cells
same,membrane permeabilisation of U937 (7AAD),[7]; compared with unlabelled NaD1,comparable level to unlabelled NaD1
same,subcellular localisation on permeabilised tumor cells,[8],"accumulation of BODIPY-NaD1 at the membrane bleb(s), cytoplasm, nucleolus and possibly at certain cytoplasmic organelles"
RTCESQSHRFKGPCARDSNCATVCLTEGFSGGDCRGFRRRCFCTRPC (other) [NaD2 (Class I plant defensin)],binding result,[9],binds
